Experimental data published in PubChem BioAssay AID1996.
Converted amounts (≈) assume the structure as drawn.

details: buffer; pH 7.4; 200.0 µM

SMILES | solubility kinetic [µg/mL]
CCC(=O)Nc1nc(-c2cc([N+](=O)[O-])cs2)cs1 | 1 (≈ 3.53 µM)
Cc1cc(N/C=C(\C#N)S(=O)(=O)c2ccc(Cl)cc2)nc(C)n1 | 12.9 (≈ 37 µM)
COc1ccc(C2CC3(O)CC(C#N)(C(=O)N3)C2(C#N)C#N)cc1 (centres undefined) | > 48.3
O=[N+]([O-])/C=C1\C=CC=CN1Cc1ccc(Cl)cc1 | 31.7 (≈ 121 µM)
O=C1c2ccccc2S(=O)(=O)N1Cc1ccccc1[N+](=O)[O-] | 0.7 (≈ 2.2 µM)
COc1cc(C2C(C#N)=C(N)OC3=C2C(=O)CC(C)(C)C3)cc2c1OCO2 (centres undefined) | 21.6 (≈ 58.6 µM)
O=C(NCCNc1ccc(Cl)cc1[N+](=O)[O-])c1ccccc1F | 1.5 (≈ 4.44 µM)
O=C1COc2ccc(C(=O)COC(=O)c3ccc(F)cc3Cl)cc2N1 | 5.3 (≈ 14.6 µM)
COc1ccc(C=O)cc1Cn1c(C)cc(C)c(C#N)c1=O | 0.6 (≈ 2.02 µM)
COc1ccc(-c2nc(N)nc(C(F)(F)F)c2-c2cscn2)c(O)c1 | < 0.2
O=C(c1ccc([N+](=O)[O-])cc1)c1cc2ccc(O)cc2oc1=O | 2 (≈ 6.43 µM)
COc1ccc(OC)c(NC(=O)C2=C(C)NC(=O)NC2c2cccs2)c1 (centres undefined) | 25.3 (≈ 67.7 µM)
Cc1ccc(C(=O)Nc2ccc(Cl)cc2C)c(Cl)c1 | < 0.6
Cc1cc(SCc2ccc(Cl)cc2Cl)nc(=O)[nH]1 | 4.6 (≈ 15.3 µM)
Cc1ccc(NC(=S)Nc2ccc(F)cc2)cc1C | 12.2 (≈ 44.5 µM)
Cc1ccc(S(=O)(=O)NCC(=O)OCC(=O)N(CCC#N)c2ccccc2)cc1 | > 62.3
COc1ccc(NC(=O)CN(C)C2=NS(=O)(=O)c3ccccc32)cc1Cl | 4.4 (≈ 11.2 µM)
CC(=O)c1c(C)[nH]c(C(=O)CSc2ccc(F)cc2)c1C | 2.5 (≈ 8.19 µM)

SMILES | solubility kinetic [µg/mL]
O=S(=O)(Nc1ccccc1Cl)c1cccc2nsnc12 | > 48.9
CCN1C(=O)CSC1=Nc1ccc(OC)cc1 | 33.4 (≈ 133 µM)
COC(=O)C1=CNC=C(C(=O)OC)C1c1cccc2ccccc12 | 2.6 (≈ 8.04 µM)
O=C(NC(=S)Nc1ccc2[nH]c(=O)[nH]c2c1)c1ccccc1F | 1.1 (≈ 3.33 µM)
COc1cccc(N=C2CC(C)(C)CC(=O)/C2=C(/O)c2ccccc2)c1 | 0.9 (≈ 2.58 µM)
COc1ccc2nc(SC)cc(C)c2c1 | 3.7 (≈ 16.9 µM)
CSc1ccccc1NC(=O)Nc1cccc(Cl)c1C | 0.5 (≈ 1.63 µM)
CCOC(=O)c1sc(=NC(=O)c2ccccc2)n(C)c1C | 0.4 (≈ 1.31 µM)
CN(C)C(C)(C)C#CC(O)(c1ccccc1)c1ccccc1 | > 44
CCN(c1ccc(NC(=O)COC(=O)/C=C/c2ccco2)cc1)C(C)C | 24.5 (≈ 68.7 µM)
CN(C)CCNC(=O)c1ccc2c(c1)NC(=O)c1ccccc1S2 | > 51.2
CCNC(=S)NCc1ccc(OC)c(OC)c1 | > 38.2
Cc1ccc(S(=O)(=O)/N=C(\N)c2ccc(Cl)cc2)cc1 | > 46.3
Cc1ccc(C(=O)OCN2C(=O)c3ccccc3C2=O)c(O)c1 | < 0.7
CCn1cc(C(c2ccccc2)C(C(C)=O)[N+](=O)[O-])c2ccccc21 (centres undefined) | 4.8 (≈ 14.3 µM)
COc1cc2[nH]c(Cl)c([N+](=O)[O-])c2cc1OC | > 38.5
CCc1noc(C)c1C(=O)OCC(=O)NC(=O)c1ccccc1 | > 47.4
COc1ccc2[nH]cc(CCNCc3cccnc3)c2c1.Cl | 46.2

More lines, now with the values ahead:

solubility kinetic [µg/mL] | SMILES
> 49.2 | O=C(Nc1ccccc1Br)c1ccc2nccnc2c1
17.7 (≈ 55.1 µM) | Cc1ccc(NC(=O)COc2ccc(Br)cn2)cc1
27.6 (≈ 67.6 µM) | CC1(c2ccccc2)NC(=O)N(CC(=O)Nc2ccc(N3CCOCC3)cc2)C1=O (centres undefined)
13.5 (≈ 38.5 µM) | O=C(Nc1ccc(S(=O)(=O)N2CCCCC2)cc1)C1CCCCC1
52.9 (≈ 129 µM) | CN(C(=O)C1CCN(S(=O)(=O)c2ccccc2[N+](=O)[O-])CC1)C1CCCCC1
30.3 (≈ 98.5 µM) | O=C(c1cc(F)c(F)cc1Cl)N1CCCc2ccccc21
> 45.2 | O=C1NC(N2CCOCC2)=N/C1=C/c1ccc2c(c1)OCO2
36.8 (≈ 127 µM) | CCCOc1ccc(/C=C2/C(=O)ON=C2C)cc1OCC
0.6 (≈ 1.79 µM) | O=C(NC12CC3CC(CC(C3)C1)C2)c1cc([N+](=O)[O-])ccc1Cl
32.2 (≈ 116 µM) | CC(=O)Nc1ccc(NC(=S)NC(=O)C2CC2)cc1
34.2 (≈ 127 µM) | CCC(C)C(NC(N)=O)C(=O)NC1CCC(C)CC1 (centres undefined)
38.6 (≈ 131 µM) | CC(C)CCNC(=O)CSc1nc2ccccc2s1
29.5 (≈ 147 µM) | Cc1ccc(Nc2ncnc(N)n2)cc1
> 41.8 | CCN(CC)C(=O)Oc1ccnc2cc(Cl)ccc12
> 36.8 | Cc1c(C(=O)N2CCOCC2)oc2ccccc12
38.7 (≈ 109 µM) | CCN(Cc1ccccc1)C(=O)c1c(-c2ccccc2Cl)noc1C
1.5 (≈ 5.65 µM) | CC(NC(=O)C1CC1)c1ccc(-c2ccccc2)cc1 (centres undefined)
< 0.3 | CCOc1ccccc1NC(=O)NCCCCc1ccccc1
> 47.3 | CC1(C)CC(=O)C2=C(C1)NC(=O)NC2c1ccc([N+](=O)[O-])cc1 (centres undefined)
> 49 | COC(=O)/C(=N\OCc1ccc(C#N)cc1)c1c(C)nn(C)c1C
> 42.2 | O=C(CNC(=O)c1ccccc1F)OC1CCOC1=O (centres undefined)
49.4 (≈ 146 µM) | O=C(NCC(=O)N1CCN(c2ccccc2O)CC1)c1ccccc1
10.6 (≈ 23.5 µM) | Cc1ccc(NC(=O)CSc2nc(N)cc(=O)[nH]2)cc1S(=O)(=O)N1CCCCCC1
5.8 (≈ 19.4 µM) | O=C(CC1CCCCC1)NCc1nc(-c2ccccc2)no1

solubility kinetic [µg/mL] | SMILES
> 52.6 | CCCCNC(=O)Cn1nc(Cc2ccncc2)c2ccccc2c1=O
25.5 (≈ 101 µM) | COc1ccc(OC)c(CN2CCSCC2)c1
> 40.2 | O=C(CN1C(=O)CNC1=O)Nc1ccc(Cl)cc1
1.4 (≈ 3.95 µM) | Cc1ccccc1-c1ccc(/C=C2/SC(N3CCOCC3)=NC2=O)o1
19.5 (≈ 58.5 µM) | CN(C(=O)c1cccc(C(F)(F)F)c1)C1CCCc2ccccc21 (centres undefined)
> 69.1 | COc1ccccc1N(CCC#N)C(=S)Nc1ccc(S(=O)(=O)N2CCOCC2)cc1
32.9 (≈ 97.2 µM) | Cc1csc(CN(C)C(=O)C2CCC(=O)N(CCN(C)C)C2)n1 (centres undefined)
> 60.2 | O=C(COC(=O)CCN1C(=O)C2CC=CCC2C1=O)Nc1ccc([N+](=O)[O-])cc1 (centres undefined)
12.5 (≈ 36.6 µM) | CN(C)S(=O)(=O)c1ccc(NC(=S)NC(=O)C2CCC2)cc1
44.5 (≈ 137 µM) | COc1cc(C)cc(CN2CCC(Cc3ccccc3)CC2)c1O
> 44.3 | OC(CCN1CCCCC1)c1ccc(-c2ccccc2)cc1 (centres undefined)
23.9 (≈ 102 µM) | c1cn(CCCNC2CCCCCCC2)cn1
> 46.9 | CCc1ccc(N2CN(Cc3cccnc3)CNC2=S)cc1
< 0.4 | O=C(CCC1CCCCC1)Nc1ccc(C(=O)c2ccncc2)cc1
> 46.9 | CC(=O)Nc1ccc(OCC(=O)NCCc2ccccc2)cc1
> 47.2 | COc1ccc(C)cc1NC(=O)C(C)N1CCOCC1.Cl (centres undefined)
> 51.2 | CN(C)S(=O)(=O)N1CCN(C(=O)c2ccc3c(c2)OCO3)CC1
> 48.8 | COc1ccc(C2(C(=O)Nc3ccc(C)cc3)CCOCC2)cc1
> 38.3 | COc1ccc(/C=N/NC(=O)c2cccnc2)cc1
< 0.4 | Cc1ccc(C(=O)Nc2cccc3cccnc23)cc1Br
> 43.9 | COc1ccc(NC(=O)CC2(CC(=O)O)CCCC2)cn1
27.4 | CCC1CCCCN1C(=O)CNCC1CCCO1.Cl (centres undefined)
45.5 (≈ 140 µM) | Cc1ccc(NC(=O)CCn2cc(C(F)(F)F)ccc2=O)cc1
44.8 (≈ 145 µM) | CCN1CCN(C(=S)NC(=O)/C=C/c2cccs2)CC1
